ChEMBL document CHEMBL1201862, “PubChem BioAssay data set” (2004)
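Interpolation was linear, between the two tested concentrations surrounding the appropriate level; five concentrations were tested over 48 hours in 96-well plates. GI50 marks 50% less growth.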 Activity calls are given as the source filed them. Cut-off read from the data, not from the text of the source: active = GI50 up to about 1.1 µM and inactive = higher.

Assays:
Test in all cases: NCI tumour cell line growth inhibition, 48 h
Hs-578T = test system: Hs-578T
NCI/ADR-RES = test system: NCI/ADR-RES
SNB-75 = test system: SNB-75
HCT-116 = test system: HCT-116
MCF7 = test system: MCF7
BT-549 = test system: BT-549
MDA-N = test system: MDA-N
SNB-19 = test system: SNB-19
HT-29 = test system: HT-29
TK-10 = test system: TK-10
RXF 393 = test system: RXF 393
NCI-H522 = test system: NCI-H522
UO-31 = test system: UO-31
786-0 = test system: 786-0
SK-MEL-5 = test system: SK-MEL-5
Malme-3M = test system: Malme-3M
K562 = test system: K562
LOX IMVI = test system: LOX IMVI
SK-OV-3 = test system: SK-OV-3
CCRF-CEM = test system: CCRF-CEM
SK-MEL-28 = test system: SK-MEL-28
T47D = test system: T47D
RPMI-8226 = test system: RPMI-8226
PC-3 = test system: PC-3
OVCAR-4 = test system: OVCAR-4
SR = test system: SR
A549 = test system: A549
SK-MEL-2 = test system: SK-MEL-2
KM12 = test system: KM12
MDA-MB-231 = test system: MDA-MB-231
MDA-MB-435 = test system: MDA-MB-435
UACC-62 = test system: UACC-62
DU-145 = test system: DU-145
NCI-H23 = test system: NCI-H23
HCT-15 = test system: HCT-15
CAKI-1 = test system: CAKI-1
OVCAR-8 = test system: OVCAR-8
COLO 205 = test system: COLO 205
HCC 2998 = test system: HCC 2998
EKVX = test system: EKVX
OVCAR-5 = test system: OVCAR-5
NCI-H460 = test system: NCI-H460
M14 = test system: M14
ACHN = test system: ACHN
UACC-257 = test system: UACC-257
OVCAR-3 = test system: OVCAR-3
SF-539 = test system: SF-539
SF-268 = test system: SF-268
SN12C = test system: SN12C
NCI-H226 = test system: NCI-H226
HL-60 = test system: HL-60
MOLT-4 = test system: MOLT-4
SF-295 = test system: SF-295
HOP-62 = test system: HOP-62
U-251 = test system: U-251
IGROV-1 = test system: IGROV-1
HOP-92 = test system: HOP-92
SW-620 = test system: SW-620
A498 = test system: A498

SMILES: Nc1nccc(-c2c[nH]c3cc(Br)ccc23)n1 [MERIDIANIN D]
- GI50 (Hs-578T): 25.9 µM (inactive)
- GI50 (NCI/ADR-RES): 30.8 µM (inactive)
- GI50 (SNB-75): 20.5 µM (inactive)
- GI50 (HCT-116): 18.6 µM (inactive)
- GI50 (MCF7): 19.9 µM (inactive)
- GI50 (BT-549): 31.2 µM (inactive)
- GI50 (MDA-N): 21 µM (inactive)
- GI50 (SNB-19): 20.7 µM (inactive)
- GI50 (HT-29): 20.3 µM (inactive)
- GI50 (TK-10): 22.3 µM (inactive)
- GI50 (RXF 393): 15.5 µM (inactive)
- GI50 (NCI-H522): 17.7 µM (inactive)
- GI50 (UO-31): 18.7 µM (inactive)
- GI50 (786-0): 21.5 µM (inactive)
- GI50 (SK-MEL-5): 18.9 µM (inactive)
- GI50 (Malme-3M): 34.8 µM (inactive)
- GI50 (K562): 33.5 µM (inactive)
- GI50 (LOX IMVI): 25.3 µM (inactive)
- GI50 (SK-OV-3): 29.1 µM (inactive)
- GI50 (CCRF-CEM): 41.1 µM (inactive)
- GI50 (SK-MEL-28): 30.5 µM (inactive)
- GI50 (T47D): 30.4 µM (inactive)
- GI50 (RPMI-8226): 22.6 µM (inactive)
- GI50 (PC-3): 30.1 µM (inactive)
- GI50 (OVCAR-4): 48.9 µM (inactive)
- GI50 (SR): 17.3 µM (inactive)
- GI50 (A549): 15.7 µM (inactive)
- GI50 (SK-MEL-2): 20 µM (inactive)
- GI50 (KM12): 24.2 µM (inactive)
- GI50 (MDA-MB-231): 33.2 µM (inactive)
- GI50 (MDA-MB-435): 26.5 µM (inactive)
- GI50 (UACC-62): 22 µM (inactive)
- GI50 (DU-145): 34.5 µM (inactive)
- GI50 (NCI-H23): 25.2 µM (inactive)
- GI50 (HCT-15): 25.1 µM
- GI50 (CAKI-1): 12.6 µM (inactive)
- GI50 (OVCAR-8): 35.7 µM (inactive)
- GI50 (COLO 205): 18.7 µM (inactive)
- GI50 (HCC 2998): 25.1 µM (inactive)
- GI50 (EKVX): 1.59 µM (inactive)
- GI50 (OVCAR-5): 17.5 µM (inactive)
- GI50 (NCI-H460): 30 µM (inactive)
- GI50 (M14): 24.5 µM (inactive)
- GI50 (ACHN): 19.8 µM (inactive)
- GI50 (UACC-257): 30.2 µM (inactive)
- GI50 (OVCAR-3): 28.8 µM (inactive)
- GI50 (SF-539): 32.6 µM (inactive)
- GI50 (SF-268): 31 µM (inactive)
- GI50 (SN12C): 21.7 µM (inactive)
- GI50 (NCI-H226): 45.6 µM (inactive)
- GI50 (HL-60): 29.2 µM (inactive)
- GI50 (MOLT-4): 24.7 µM (inactive)
- GI50 (SF-295): 35.3 µM (inactive)
- GI50 (HOP-62): 30 µM (inactive)
- GI50 (U-251): 30.8 µM (inactive)
- GI50 (IGROV-1): 23.7 µM (inactive)
- GI50 (HOP-92): 23.7 µM (inactive)
- GI50 (SW-620): 33.3 µM (inactive)

SMILES: COC([C@@H](OC(=O)c1ccccc1)[C@H](OC(=O)c1ccccc1)C(O)COC(=O)c1ccccc1)n1cc(C)c(=O)[nH]c1=O (stereo partly drawn)
- GI50 (Hs-578T): 28.4 µM (inactive)
- GI50 (NCI/ADR-RES): 28.6 µM (inactive)
- GI50 (SNB-75): 22.5 µM (inactive)
- GI50 (HCT-116): 23.6 µM (inactive)
- GI50 (MCF7): 13 µM (inactive)
- GI50 (BT-549): 21.3 µM (inactive)
- GI50 (MDA-N): 30.9 µM (inactive)
- GI50 (SNB-19): 22.2 µM (inactive)
- GI50 (HT-29): 15.7 µM (inactive)
- GI50 (TK-10): 33.8 µM (inactive)
- GI50 (RXF 393): 14 µM (inactive)
- GI50 (NCI-H522): 20.4 µM (inactive)
- GI50 (UO-31): 25.5 µM (inactive)
- GI50 (786-0): 26.2 µM (inactive)
- GI50 (SK-MEL-5): 11.7 µM (inactive)
- GI50 (Malme-3M): 23.6 µM (inactive)
- GI50 (K562): 13.7 µM (inactive)
- GI50 (LOX IMVI): 15.1 µM (inactive)
- GI50 (SK-OV-3): 40.6 µM (inactive)
- GI50 (SK-MEL-28): 39.3 µM (inactive)
- GI50 (T47D): 11.6 µM (inactive)
- GI50 (RPMI-8226): > 100 µM (inactive)
- GI50 (PC-3): 4.83 µM (inactive)
- GI50 (OVCAR-4): 7.83 µM (inactive)
- GI50 (SR): 29.7 µM (inactive)
- GI50 (A549): 16.4 µM (inactive)
- GI50 (SK-MEL-2): 25.7 µM (inactive)
- GI50 (MDA-MB-231): 40.6 µM (inactive)
- GI50 (MDA-MB-435): 20 µM (inactive)
- GI50 (UACC-62): 17.3 µM (inactive)
- GI50 (DU-145): 44.5 µM (inactive)
- GI50 (NCI-H23): 29.4 µM (inactive)
- GI50 (HCT-15): 27 µM
- GI50 (OVCAR-8): 39.1 µM (inactive)
- GI50 (COLO 205): 22 µM (inactive)
- GI50 (EKVX): 26.1 µM (inactive)
- GI50 (OVCAR-5): 19.1 µM (inactive)
- GI50 (NCI-H460): 27.3 µM (inactive)
- GI50 (M14): 22.8 µM (inactive)
- GI50 (ACHN): 31.6 µM (inactive)
- GI50 (UACC-257): 34.2 µM (inactive)
- GI50 (OVCAR-3): 20.3 µM (inactive)
- GI50 (SF-268): 29.7 µM (inactive)
- GI50 (SN12C): 43.2 µM (inactive)
- GI50 (NCI-H226): 20.8 µM (inactive)
- GI50 (MOLT-4): 3.6 µM (inactive)
- GI50 (SF-295): 24.4 µM (inactive)
- GI50 (HOP-62): 35.3 µM (inactive)
- GI50 (U-251): 14.5 µM (inactive)
- GI50 (IGROV-1): 31.4 µM (inactive)
- GI50 (SW-620): 21.3 µM (inactive)

SMILES: C[C@H](CCC(=O)O)[C@H]1CC[C@H]2[C@@H]3[C@H](O)[C@H](O)[C@@H]4C[C@H](O)CC[C@]4(C)[C@H]3CC[C@]12C [HYOCHOLIC ACID]
- GI50 (Hs-578T): > 100 µM (inactive)
- GI50 (NCI/ADR-RES): > 100 µM (inactive)
- GI50 (SNB-75): > 100 µM (inactive)
- GI50 (HCT-116): > 100 µM (inactive)
- GI50 (A498): > 100 µM (inactive)
- GI50 (MCF7): > 100 µM (inactive)
- GI50 (BT-549): > 100 µM (inactive)
- GI50 (MDA-N): > 100 µM (inactive)
- GI50 (SNB-19): > 100 µM (inactive)
- GI50 (HT-29): > 100 µM (inactive)
- GI50 (TK-10): > 100 µM (inactive)
- GI50 (RXF 393): > 100 µM (inactive)
- GI50 (NCI-H522): > 100 µM (inactive)
- GI50 (UO-31): > 100 µM (inactive)
- GI50 (786-0): > 100 µM (inactive)
- GI50 (Malme-3M): > 100 µM (inactive)
- GI50 (K562): > 100 µM (inactive)
- GI50 (LOX IMVI): 30.2 µM (inactive)
- GI50 (CCRF-CEM): > 100 µM (inactive)
- GI50 (SK-MEL-28): > 100 µM (inactive)
- GI50 (T47D): > 100 µM (inactive)
- GI50 (RPMI-8226): > 100 µM (inactive)
- GI50 (PC-3): > 100 µM (inactive)
- GI50 (OVCAR-4): > 100 µM (inactive)
- GI50 (A549): > 100 µM (inactive)
- GI50 (SK-MEL-2): > 100 µM (inactive)
- GI50 (KM12): > 100 µM (inactive)
- GI50 (MDA-MB-231): > 100 µM (inactive)
- GI50 (MDA-MB-435): > 100 µM (inactive)
- GI50 (UACC-62): > 100 µM (inactive)
- GI50 (DU-145): > 100 µM (inactive)
- GI50 (NCI-H23): > 100 µM (inactive)
- GI50 (HCT-15): > 100 µM
- GI50 (CAKI-1): > 100 µM (inactive)
- GI50 (OVCAR-8): > 100 µM (inactive)
- GI50 (COLO 205): > 100 µM (inactive)
- GI50 (HCC 2998): > 100 µM (inactive)
- GI50 (EKVX): > 100 µM (inactive)
- GI50 (OVCAR-5): > 100 µM (inactive)
- GI50 (NCI-H460): > 100 µM (inactive)
- GI50 (M14): > 100 µM (inactive)
- GI50 (ACHN): > 100 µM (inactive)
- GI50 (UACC-257): > 100 µM (inactive)
- GI50 (SF-539): > 100 µM (inactive)
- GI50 (SF-268): > 100 µM (inactive)
- GI50 (SN12C): > 100 µM (inactive)
- GI50 (NCI-H226): > 100 µM (inactive)
- GI50 (HL-60): > 100 µM (inactive)
- GI50 (MOLT-4): > 100 µM (inactive)
- GI50 (HOP-62): > 100 µM (inactive)
- GI50 (U-251): > 100 µM (inactive)
- GI50 (IGROV-1): > 100 µM (inactive)
- GI50 (HOP-92): > 100 µM (inactive)
- GI50 (SW-620): > 100 µM (inactive)
